The source of these data is US20160166627A1, “JOINT HEALTH COMPOSITIONS” (NESTEC S.A., priority 2013, published 2016).

The subject of the assay is tumor necrosis factor α (TNF-α). Kind of assay: Serum TNF-α (inflammation marker) in ovariectomized rats, Rat TNF-α Platinum ELISA. The class given is in vivo, Sprague-Dawley rats. The settings on record: week 12 (end of study), vs OVX group, P<0.05. The procedure:
Ovariectomized (OVX) rats were used as a model to mimic osteoarthritis in healthy postmenopausal women. The effect of fructus corni on suppressing markers of cartilage degeneration, cross linked C-telopeptide of type 2 collagen (CTX-II) and inflammation, tumor necrosis factor α (TNF-α), was examined. Seven month-old female Sprague-Dawley rats were purchased from Beijing Weitong Lihua Laboratory Animal Centre. Surgery was performed by the research team in Shenyang Medical College. The rats were anaesthetized with Hypnorm™/Dormicum™ (1 part Hypnorm™+1 part Dormicum™+2 parts sterile water) given by injection at 0.2 ml/100 g body weight. After anaesthesia the animal was shaved on the back and the skin disinfected. A single incision in the skin was made above the spine, providing access to both ovaries. The muscles were cut to provide access and the ovaries were located and removed by cutting. The muscle on each side was closed with 1-2 stitches, and the skin was closed with 3-4 stitches. […] Rats in group F had free access to distilled water containing 0.5% glucosamine and the amount of water consumed was recorded for each rat. […] CTX-II was measured using the Serum Preclinical Cartilaps ELISA (Nordic Bioscience, Herlev, Denmark). […] Serum TNFα was measured using Rat TNF-α Platinum ELISA (eBioscience, USA) for the serum collected at the end of the study only. […] Data were expressed as means±SD. […]
For orientation: An ELISA detects its analyte on a solid surface through an enzyme-linked reagent.

Counter-ions that a name gives are not always drawn.

Turning to `N[C@H]1C(O)O[C@H](CO)[C@@H](O)[C@@H]1O` (stereo partly shown) [glucosamine, Glucosamine (GS) hydrochloride], the “serum TNF-α concentration, increase induced by OVX” value is recorded as “not observed”.
